# According to patent US20240050406A1, “COMPOSITION COMPRISING OXIRACETAM FOR PREVENTING OR TREATING MUSCULAR DISEASE” (KSB TUGEN INC., priority 2021, published 2024):
# Assays:
# [1] = system: animal model in which muscular atrophy is induced by dexamethasone; assay: Comparison with dementia drugs in dexamethasone muscular atrophy model (Experimental Example 5); format: in vivo, ICR mice
# From the text: For an experimental group in the present invention, oxiracetam having a structure of Formula 1 was purchased from Tokyo Chemical Industry (Japan; Product No. 00398, CAS RN:62613-82-5, purity: 96%) and used. Mirtazapine and olanzapine were purchased from Tokyo Chemical Industry (Japan, Product Nos. M2151, 00393, purity: 96%) and used.
# As experimental animals, 7-week-old male ICR mice were purchased and used. Until the day of the experiment, general feed (EEGJ30060: Cargill Agri Purina, Seongnam, Korea) and water were sufficiently supplied to the experimental animals, and the animals were acclimated for 1 week under an environment of a temperature of 23±2° C., a humidity of 55±10%, and a light-dark cycle of 12 hours-12 hours and used in the experiment.
# After the acclimation period for the experimental animals, to create a muscular atrophy model, the mice were randomly divided into groups of 7 animals, such as a control (vehicle, n=7), a dexamethasone-treated group (n=7), and a drug-administered group (n=7). The groups except for the control were intraperitoneally injected dexamethasone at a dose of 10 mg/kg from day 7 to day 21 for 14 days. In the case of the drug-administered group, 7 days before the intraperitoneal administration of dexamethasone, the drug was orally administered using a Zonde needle at a dose of 30 or 10 mg/kg/day once a day for 21 days. During the same period, the control was administered no drug, and 100 μL of normal saline was orally administered at a time. To the dexamethasone-treated group (dexamethasone excipient, CMC), instead of the drug, 100 μL of a 0.5% carboxymethylcellulose (CMC) solution was administered. This is to set the effect on the excipient as a blank.
# To measure grip strength, a grip strength test was performed. The maximum force presented when the forelimbs of an animal model of each group could no longer hold the rod by pulling the tail horizontally while holding the tail of the animal model and holding the rod of a device with both front paws was considered to be grip strength (N). Grip strength adaptation training was performed at least three times before drug administration. After measurement before drug administration (day 0) and on day 20 after drug administration began, grip strength variation (%) after drug administration began (day 20) with respect to that before drug administration (day 0) was calculated.
# The lean body mass of the gastrocnemius muscle (GS) and the lean body mass of the tibialis anterior (TA) for each group were measured every 7 days. Specifically, animal models of each group were anesthetized using 3% isoflurane, fixed to a photographing bed and then photographed. During photographing, the respiratory rates and body temperatures of the animal models were measured with an animal monitoring system (SA Instruments, USA).
# The whole body of the animal model was photographed through dual energy X-ray absorptiometry (DEXA) using iNSiGHT VET DXA (Osteosys, KR), and the lean body mass of each of the gastrocnemius muscle (GS) and the tibialis anterior (TA) was measured and calculated from the two-dimensional images of the gastrocnemius muscle (GS) and the tibialis anterior (TA) by a program using the region of interest (ROI).
# Statistical processing was performed using GraphPad Prism (GraphPad Software Inc., San Diego, CA, USA). The results of each repeated experiment were expressed as mean±standard error of mean, and analyzed using the analysis of variance (Tukey's test), and statistical significance was acknowledged when the P-value was 0.05 or less.
# C2C12 myotubes = assay: Myotube diameter in TNF-α muscular atrophy cell model (Experimental Example 7); format: cell-based, mouse
# Method: A mouse-derived C2C12 cell line was provided from the American Type Culture Collection (ATCC, CRL-1772; Manassas, VA, USA) and cultured at 37° C. in 5% CO2. In the proliferation phase of the cells before differentiation, high concentration glucose Dulbecco's modified Eagle's medium (DMEM) containing 1% penicillin/streptomycin and 10% fetal bovine serum (FBS) medium were used, and in the differentiation induction, the FBS medium was replaced with a 2% horse serum (HS)-containing medium. The C2C12 myoblasts were seeded into a 96 well culture plate and a 6 well culture plate at 2×10^5/well and 5×10^3/well, respectively, and cultured at 37° C. in a CO2 incubator. When the confluency reached approximately 90%, the medium was replaced with 2% horse serum (HS)-containing DMEM to induce differentiation of myoblasts. After 5 days, the C2C12 myotubes that had differentiated were treated with 10 ng/ml TNF-α, which is an inflammatory factor, for 48 hours to cause myotube atrophy, thereby creating a muscular atrophy cell model, TNF-α-treated group (TNF-α). During the TNF-α treatment, 10 μM oxiracetam was treated to create an oxiracetam-treated group (Oxiracetam 10 μM), cells that were not treated during the same period were prepared as a control. Two days after TNF-α and oxiracetam treatment, each of the TNF-α-treated group (TNF-α), the oxiracetam-treated group (Oxiracetam 10 μM) and the control was treated with an ATP detection reagent at room temperature, and then luminescence was measured using a mitochondrial ToxGlo™ assay kit (Promega). In addition, the TNF-α-treated group (TNF-α), the oxiracetam-treated group (Oxiracetam 10 μM) and the control were photographed using an optical microscope and the diameter of a myotube cell in each group were measured and compared. Statistical processing was performed using GraphPad Prism (GraphPad Software Inc., San Diego, CA, USA).
# [2] = oxiracetam 30, mirtazapine 10, olanzapine 10 mg/kg/day oral 21 days + dexamethasone, DEXA every 7 days
smiles,measurement,setting,value
"NC(=O)CN1CC(O)CC1=O (racemic) [oxiracetam, (RS)-2-(4-hydroxy-2-oxopyrrolidin-1-yl)acetamide]",change in grip strength,"[1]; oxiracetam 30, mirtazapine 10, olanzapine 10 mg/kg/day oral 21 days + dexamethasone 10 mg/kg i.p. day 7-21",significantly recovers
same,lean body mass of the gastrocnemius muscle (GS),[1]; [2],significantly recovers
same,lean body mass of the tibialis anterior (TA),[1]; [2],significantly recovers
same,diameter of a myotube,"C2C12 myotubes; TNF-α 10 ng/ml 48 h + oxiracetam 10 μM, compared to TNF-α-treated group",significant increase
same,diameter of a myotube relative to control,"C2C12 myotubes; TNF-α 10 ng/ml 48 h with oxiracetam 10 μM or 0 μM, relative to non-treated control",recovers to a level similar to the control
